Earlier results, collected in publication PMC6458983 (Cancer Chemotherapy and Pharmacology, 2019).

Conditions: cited from earlier work

SMILES: C#Cc1cccc(Nc2ncnc3cc(OCCOC)c(OCCOC)cc23)c1 [erlotinib]
- trough plasma concentration (patient case study, at the time of ILD diagnosis): elevated
- median trough concentrations versus patients without ILD (three patients at the time of suspected ILD): approximately three times higher
